According to ChEMBL document CHEMBL3301448, “MMV Malaria Box screening against Toxoplasma gondii and Entamoeba histolytica”:

Tests used:
[1] = tested on: Entamoeba histolytica; assay: MMV: Primary screening was performed with each compound at a 30 uM final concentration and in triplicate in sealed 96-well polystyrene microtiter plates. Parasite inocula (100 ul) comprising 20000 parasites/ml were added to each well and grown at 37 degrees C in a humidified atmosphere of 5% CO2 for 72 h. Positive controls consisted of metronidazole at 1 mg/ml. The growth of E. histolytica trophozoites in each well was determined microscopically by measuring the diameters of the confluent cells in drug-containing wells relative to those in the nega- tive-control wells.; assay type: functional, organism-based
[2] = tested on: Toxoplasma gondii; assay: MMV: A total of 100ul of inoculum was added to each well (parasite/cell ratio, ~10:1; final volume, 200 ul). Six hours after inoculation, nonadherent parasites were removed, and 100 ul of complete DMEM (1% penicillin-streptomycin, 3% FBS) supplemented with inhibitors at different concentrations (2-fold serial dilutions starting from 30 uM) was added to all except the negative-control wells. Positive controls, consisting of pyrimethamine (PYR) and sulfadiazine (SDZ) (20-mg/ml stocks in DMSO), were tested at a 2mg/ml final concentration. Each test was performed in triplicate.; assay type: functional, organism-based; details: 6 h

Row | SMILES | IC50 [1] [µM] | IC50 [2] [µM]
1 | COc1cc(OC)c(N(C)C(=O)c2cc3c(s2)-c2ccccc2S(=O)(=O)C3)cc1Cl | > 30 | > 30
2 | COc1ccc(C2Sc3ccccc3N=C3C2=C(O)c2ccccc23)cc1 (configuration not stated) | > 30 | > 30
3 | Cc1ccc(N2C3c4ccccc4N(S(=O)(=O)c4ccc(C)cc4)C2c2ccccc2N3S(=O)(=O)c2ccc(C)cc2)cc1 | > 30 | > 30
4 | O=C(Nc1ccc(-c2nc3ccccc3[nH]2)cc1)c1ccc(Cl)c(Cl)c1 | > 30 | > 30
5 | CN1CCN(c2ccc(Nc3c4ccccc4nc4ccccc34)cc2)CC1 | > 30 | > 30
6 | O=C(Nc1ccc(C23CC4CC(CC(c5ccccc5)(C4)C2)C3)cc1)c1cccs1 | > 30 | > 30
7 | Cc1cc(N2CCN(C3CCCC3)CC2)n2c(nc3ccccc32)c1C#N | > 30 | > 30
8 | CCCCN(CCCC)S(=O)(=O)c1ccc(NC(=O)c2ccco2)cc1 | > 30 | 1.07
9 | CCN(CC)CCNc1ccnc2cc3ccccc3cc12 | > 30 | > 30
10 | CC1CC2=C(CC1CNCCCN(C)C)C(C)(C)CCC2 (configuration not stated) | > 30 | > 30
11 | Cc1cc(N(C)C)nc(Nc2ccc(NC(=O)Nc3ccccc3)cc2)n1 | > 30 | > 30
12 | CC(Oc1ccc(NC(=O)c2cccs2)cc1)C(=O)c1ccc(Cl)cc1 (configuration not stated) | > 30 | 10.5
13 | O=C(Nc1ccc(N2CCCCC2)c(Cl)c1)c1ccc(Br)o1 | > 30 | > 30
14 | COc1ccccc1CNC(=O)C1c2ccccc2C(=O)N(CC(C)C)C1c1cccs1 (configuration not stated) | > 30 | > 30
15 | Cc1sc(NC(=O)c2ccco2)c(C(c2cccnc2)N2CCC(Cc3ccccc3)CC2)c1C (configuration not stated) | > 30 | > 30
16 | CC(C)OCc1cc(CN2CCN(c3cccc(Cl)c3)CC2)c(O)c2ncccc12 | > 30 | > 30
17 | CCOc1ccccc1CN1CCc2nc3cc(C(C)(C)C)nn3c(O)c2C1 | > 30 | > 30
18 | Cc1ccc(Nc2nc(N)c3ccccc3n2)cc1Cl | > 30 | > 30
19 | CCOc1c(Br)cc(C2C(C(=O)OC)=CN(C)C=C2C(=O)OC)cc1OC | > 30 | > 30
20 | CC1CCN(Cc2c(O)ccc3cc(-c4nc5ccccc5s4)c(=O)oc23)CC1 | > 30 | > 30
21 | COc1ccc(C2c3ccc4ccccc4c3Oc3ncn(CCCn4ccnc4)c(=N)c32)cc1OC (configuration not stated) | > 30 | > 30
22 | O=C1c2ccc3c4c(ccc(c24)C(=O)N1CCCCO)C(=O)N(CCCCO)C3=O | > 30 | > 30

Row | SMILES | IC50 [1] [µM] | IC50 [2] [µM]
23 | CCCCCCc1cc(O)c2c3c(c(=O)oc2c1)CCC(C)C3 (configuration not stated) | > 30 | > 30
24 | CCN1CCN(Cc2ccc(NC(=O)c3cc4ccc5cccnc5c4[nH]3)cc2)CC1 | > 30 | 3.85
25 | COc1ccc(CCNC(=O)c2cc(S(=O)(=O)N3CC(C)CC(C)C3)ccc2Sc2ccc(F)cc2)cc1OC (configuration not stated) | > 30 | > 30
26 | CC(O)(c1ccc(Cl)cc1)C(CN1CCCCC1)c1ccccc1 (configuration not stated) | > 30 | > 30
27 | O=c1nc(C=Cc2ccc(Cl)cc2)oc2ccccc12 | > 30 | > 30
28 | FC(F)(F)c1cccc(Nc2nc(-c3ccccc3)nc3ncccc23)c1 | > 30 | > 30
29 | Cn1c(C(=O)c2cccc3ccccc23)nc2ccccc21 | > 30 | > 30
30 | CCOc1ccc(C2N(C)c3ccccc3N2C)cc1 | > 30 | > 30
31 | COc1cc(SC)ccc1C(=O)N1CCCC(C)C1 (configuration not stated) | > 30 | > 30
32 | CN(C)c1ccc(N=Cc2ccc(N3CCOCC3)cc2)cc1 | > 30 | > 30
33 | CCOc1ccc(N2C(N)=NC(N)=NC2(C)C)cc1 | > 30 | > 30
34 | Cc1ccc(-c2cc(C(=O)Nc3ccc(S(=O)(=O)N4CCCCC4)cc3)[nH]n2)c(O)c1 | > 30 | > 30
35 | COCCNCC(O)Cn1c2ccc(Cl)cc2c2cc(Cl)ccc21 (configuration not stated) | > 30 | > 30
36 | COc1cccc(Cn2c(Oc3ccccc3)nc3c2c(=O)n(C)c(=O)n3C)c1 | > 30 | > 30
37 | O=C1c2ccccc2C2=Nc3ccccc3SC(c3cccc(F)c3)C12 (configuration not stated) | > 30 | 18.7
38 | CN(N=O)C1=C(NC2CCCCC2)C(=O)c2ccccc2C1=O | > 30 | > 30
39 | O=[N+]([O-])c1ccc(C=NNc2nc3ccccc3[nH]2)cc1 | > 30 | > 30
40 | CCN(CC)S(=O)(=O)c1ccc(-c2csc(Nc3ccc(C)c(C)c3)n2)cc1 | > 30 | > 30
41 | COc1cc(CNCCc2ccc(Cl)cc2)cc(OC)c1O | > 30 | > 30
42 | CCOc1ccc(Nc2c3ccccc3nc3ccccc23)cc1 | > 30 | > 30
43 | COc1ccccc1N1C(=N)SC(=Cc2ccc(OCc3ccccc3F)cc2)C1=O | > 30 | > 30
44 | Cc1ccc(CN2CCC(C(=O)Nc3ccc(-c4cc5ccccc5[nH]4)cc3)CC2)o1 | > 30 | > 30

Row | SMILES | IC50 [1] [µM] | IC50 [2] [µM]
45 | Cc1cc(=O)oc2c1ccc1oc(C(=O)c3ccccc3)c(C)c12 | > 30 | > 30
46 | COc1ccccc1CNC(=O)CCn1c(=O)[nH]c2ccsc2c1=O | > 30 | 20.9
47 | OC(CNCc1ccccc1)Cn1c2ccccc2c2ccccc21 (configuration not stated) | > 30 | > 30
48 | FC(F)(F)c1cccc(CNC2CCN(CCc3ccccc3)CC2)c1 | > 30 | > 30
49 | Cc1sc(NC(=O)c2ccccc2)c(C(c2cccs2)N2CCN(c3ccccc3)CC2)c1C (configuration not stated) | > 30 | > 30
50 | N#Cc1nc(Cc2cccc3ccccc23)oc1N1CCN(C(c2ccccc2)c2ccccc2)CC1 | > 30 | > 30
51 | Cc1cc(C)cc(Nc2cc(C)nc3nc(C(F)(F)F)nn23)c1 | > 30 | > 30
52 | CC(C)(C)c1ccc(C2CC3=Nc4ccccc4N(C(=O)c4ccccc4Cl)C(c4ccc(F)cc4)C3=C(O)C2)cc1 (configuration not stated) | > 30 | > 30
53 | CCCc1c(C)nc2ccc(Br)cc2c1O | > 30 | > 30
54 | CCc1ccc(Nc2cc(C)nc3nc(C)nn23)cc1 | > 30 | > 30
55 | CCc1c(C)c(=N)c2ccccc2n1C | > 30 | > 30
56 | Oc1c2c(nc3cc(-c4ccccc4)nn13)CCCC2 | > 30 | 26.2
57 | O=C(Nc1ccc(CN2CCOCC2)cc1)c1ccc(-c2ccc(Br)cc2)o1 | > 30 | > 30
58 | O=C(Nc1ccc(CN2CCOCC2)cc1)c1ccc(-c2cc(Cl)ccc2Cl)o1 | > 30 | > 30
59 | COc1ccc(-c2cc(=O)oc3c4c(ccc23)OCN(Cc2ccc(F)cc2)C4)cc1 | > 30 | > 30
60 | CCOc1cc2c(cc1OCC)C(c1cc(Cl)c(O)c(OCC)c1)NCC2 (configuration not stated) | > 30 | > 30
61 | COc1ccc(CCN2C(=O)c3[nH]nc(-c4cc(Cl)c(C)cc4O)c3C2c2ccccc2F)cc1 (configuration not stated) | > 30 | > 30
62 | CCOc1c(Cl)cc(CNCC(O)c2ccccc2)cc1OC (configuration not stated) | > 30 | > 30
63 | O=C(Nc1ccc(N2CCN(Cc3ccccc3)CC2)cc1)c1cccs1 | > 30 | > 30
64 | Cc1ccc(Cn2c(N3CCC(C(=O)NCc4cccs4)CC3)nc3ccccc32)cc1 | > 30 | > 30
65 | CCOc1ccc(-c2nc(NC(=O)c3cccc(S(C)(=O)=O)c3)sc2C)cc1 | > 30 | > 30
66 | CC(C)(C)c1ccc(O)c(CNC2CCCCC2)c1 | > 30 | > 30

Row | SMILES | IC50 [1] [µM] | IC50 [2] [µM]
67 | COc1ccc2nc(C)cc(Nc3ccccc3O)c2c1 | > 30 | > 30
68 | COc1ccc2c(c1)C1(Nc3ccccc3-c3nc4ccccc4n31)C(=O)N2 (configuration not stated) | > 30 | > 30
69 | CCOc1ccc2nc(C)cc(Nc3ccc(N(C)C)cc3)c2c1 | > 30 | > 30
70 | COc1ccc(Nc2cc(C)nc(NCc3ccccc3)n2)cc1 | > 30 | > 30
71 | O=C(Nc1ccc(Cl)cc1C(=O)Nc1ccncc1)c1ccc(Cl)cc1Cl | > 30 | 19
72 | O=C(Nc1cccc(C2=NCCN2)c1)Nc1cccc(C2=NCCN2)c1 [IMIDOCARB] | > 30 | > 30
73 | Fc1ccc2[nH]c3c(NCCCN4CCOCC4)ncnc3c2c1 | > 30 | > 30
74 | c1ccc2c(NCCc3c[nH]c4ccccc34)c3ccccc3nc2c1 | > 30 | 3.05
75 | CCN(Cc1ccccc1)C1CCN(Cc2cc(Br)ccc2O)CC1 | > 30 | > 30
76 | CCOC(=O)c1c[nH]c2c(CC)cccc2c1=O | > 30 | > 30
77 | CCOc1ccccc1CNC(=O)C1c2ccccc2C(=O)N(CC(C)C)C1c1cccs1 (configuration not stated) | > 30 | > 30
78 | CCOC(=O)C1CCN(C(=O)CN2C(=O)c3ccccc3C2c2c[nH]c3ccccc23)CC1 (configuration not stated) | > 30 | > 30
79 | CC(=O)c1sc(NC(=O)Nc2ccc(C)cc2C)nc1C | > 30 | > 30
80 | O=C(Nc1cccc(-c2nc3ccccc3[nH]2)c1)c1cccc(NC(=O)c2ccco2)c1 | > 30 | > 30
81 | CCCCCCc1cc2cc(-c3nc4ccccc4[nH]3)c(=Nc3ccccc3C)oc2cc1O | > 30 | 6.28
82 | O=C(NCc1ccco1)C1CCN(S(=O)(=O)c2ccc(Br)cc2)CC1 | > 30 | > 30
83 | CCCc1c(CC)c(=N)c2ccccc2n1C | > 30 | > 30
84 | COc1ccc(-n2ccnc2SCC(=O)Nc2cc(C)ccc2C)c(OC)c1 | > 30 | > 30
85 | COc1ccc2sc(N(Cc3cccnc3)C(=O)c3ccc(C#N)cc3)nc2c1 | > 30 | > 30
86 | CC(NCc1ccccc1)c1cc(Cl)ccc1O (configuration not stated) | > 30 | 21.4
